Target: Cyclin-dependent kinase 2 (Homo sapiens, UniProt P24941)

With `O=C(NC1=NNC2=CC=CC21)C1CC1` (stereo unspecified) the IC50 was 5 nM.

Source: ChEMBL document CHEMBL1156672, “Selectivity criterion for pyrazolo[3,4-b]pyrid[az]ine derivatives as GSK-3 inhibitors: CoMFA and molecular docking studies” (Eur J Med Chem, 2008)
